Measured values reported in PubChem BioAssay (NCI).
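Following 48 hours of exposure in 96-well plates, responses at five concentrations were used to interpolate endpoints linearly. TGI is the concentration that stops growth completely.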

Tests used:
Experiment in all cases: NCI-60 cell line screen, 48 h
[1] = system: SK-MEL-28 melanoma
[2] = system: SF-539 CNS
[3] = system: SW-620 colon
[4] = system: 786-0 renal
[5] = system: HT29 colon
[6] = system: SNB-75 CNS
[7] = system: NCI-H23 lung
[8] = system: SF-268 CNS
[9] = system: SK-MEL-5 melanoma
[10] = system: BT-549 breast
[11] = system: UO-31 renal
[12] = system: HOP-62 NSCLC
[13] = system: M14 melanoma
[14] = system: HCT-116 colon
[15] = system: KM12 colon
[16] = system: SF-295 CNS
[17] = system: IGROV1 ovarian
[18] = system: A549 NSCLC
[19] = system: MOLT-4 leukemia
[20] = system: RXF 393 renal
[21] = system: OVCAR-5 ovarian
[22] = system: TK-10 renal
[23] = system: A498 renal
[24] = system: MDA-MB-435
[25] = system: OVCAR-4 ovarian
[26] = system: RPMI-8226 leukemia
[27] = system: SK-OV-3 ovarian
[28] = system: UACC-257 melanoma
[29] = system: EKVX NSCLC
[30] = system: OVCAR-8 ovarian
[31] = system: SK-MEL-2 melanoma
[32] = system: SN12C renal
[33] = system: U251 CNS
[34] = system: MDA-MB-231 breast
[35] = system: HCT-15 colon
[36] = system: NCI/ADR-RES ovarian
[37] = system: MALME-3M melanoma
[38] = system: NCI-H226 lung
[39] = system: CAKI-1 renal
[40] = system: SNB-19 CNS
[41] = system: NCI-H522 lung
[42] = system: PC-3 prostate
[43] = system: CCRF-CEM leukemia
[44] = system: HOP-92 NSCLC
[45] = system: LOX IMVI melanoma
[46] = system: K-562 leukemia
[47] = system: HCC-2998 colon
[48] = system: OVCAR-3 ovarian
[49] = system: NCI-H460 lung
[50] = system: ACHN renal
[51] = system: COLO 205 colon
[52] = system: MCF7 breast
[53] = system: HL-60(TB) leukemia
[54] = system: T-47D breast
[55] = system: DU-145 prostate
[56] = system: UACC-62 melanoma
[57] = system: HS 578T breast

## O=Nn1c2ccccc2c2ccccc21
[1]
  TGI: > 100 µM
[2]
  TGI: > 100 µM
[3]
  TGI: > 100 µM
[4]
  TGI: > 100 µM
[5]
  TGI: > 100 µM
[6]
  TGI: > 100 µM
[7]
  TGI: > 100 µM
[8]
  TGI: > 100 µM
[9]
  TGI: > 100 µM
[10]
  TGI: > 100 µM
[11]
  TGI: > 100 µM
[12]
  TGI: > 100 µM
[13]
  TGI: > 100 µM
[14]
  TGI: > 100 µM
[15]
  TGI: > 100 µM
[16]
  TGI: > 100 µM
[17]
  TGI: > 100 µM
[18]
  TGI: > 100 µM
[19]
  TGI: > 100 µM
[20]
  TGI: > 100 µM
[21]
  TGI: > 100 µM
[22]
  TGI: > 100 µM
[23]
  TGI: 75.7 µM
[24]
  TGI: > 100 µM
[25]
  TGI: > 100 µM
[26]
  TGI: > 100 µM
[27]
  TGI: > 100 µM
[28]
  TGI: > 100 µM
[29]
  TGI: > 100 µM
[30]
  TGI: > 100 µM
[31]
  TGI: > 100 µM
[32]
  TGI: > 100 µM
[33]
  TGI: > 100 µM
[34]
  TGI: > 100 µM
[35]
  TGI: > 100 µM
[36]
  TGI: > 100 µM
[37]
  TGI: > 100 µM
[38]
  TGI: > 100 µM
[39]
  TGI: > 100 µM
[40]
  TGI: > 100 µM
[41]
  TGI: > 100 µM
[42]
  TGI: > 100 µM
[43]
  TGI: > 100 µM
[44]
  TGI: > 100 µM
[45]
  TGI: > 100 µM
[46]
  TGI: > 100 µM
[47]
  TGI: 60.7 µM
[48]
  TGI: > 100 µM
[49]
  TGI: > 100 µM
[50]
  TGI: > 100 µM
[51]
  TGI: 33.2 µM
[52]
  TGI: > 100 µM
[53]
  TGI: > 100 µM
[54]
  TGI: > 100 µM
[55]
  TGI: > 100 µM
[56]
  TGI: > 100 µM
[57]
  TGI: > 100 µM
